Measured values as given in patent US20230226061A1, “COMBINATION CANCER THERAPY WITH DYRK1 INHIBITORS AND INHIBITORS OF THE RAS-RAF-MEK-ERK (MAPK) PATHWAY” (Felicitex Therapuetics, Inc., priority 2022, published 2023).
Where two headings read alike, the source gives them in different places. Values belong to the compound of their own block, whether it stands above or below them.

Columns and labels:
[1] = system: DYRK1B, MAPK, p27 in SW620 cells; assay: Western blot analysis of protein expression in SW620 cells; format: cell-based; settings: SW620, 20 nM trametinib and 5 μM compound I-7, vs trametinib alone
Experimental: For Western Blot analysis cells were seeded into 6-well plates at 5×10^5-9×10^5 cells/well (depending on the cell size and rate of proliferation), allowed to attach for 24 hours, then treated with compounds for 24 hours, and harvested. Immunoblotting was performed using conventional techniques, as described in Cell Signaling Technologies Western Blotting protocol (www.cellsignal.com).
Antibodies used for blotting were from Cell Signaling Technology (CST): DYRK1B (D40D1) Rabbit mAb #5672; β-Actin (13E5) Rabbit mAb #4970; Anti-rabbit IgG, HIRP-linked Antibody #7074. The Primary Antibody Dilution Buffer 1×TBST with 5% BSA (CST #9998) was used. For detection, SignalFire™ ECL Reagent (CST #6883) was used.
The expression levels of DYRK1B, ph-t202 MAPK, total MAPK, ph-S10 p27, total p27 and β-actin in SW620 cells following the 24 hours treatment with trametinib or combination of trametinib and compound I-7 as observed by Western blot analysis are shown in FIG. 13. The expression of DYRK1B protein was compared to that in untreated cells incubated in regular growth medium containing FBS (FBS+) or serum free medium (FBS−), single treatment with trametinib to the treatment with combination of trametinib and compound I-7.

[2] = system: NSCLC A549 cells (KRAS-G12S); assay: Cell viability assay in 2D cell culture (CellTiter-Glo), A549; settings: for EC50: A549, 96 h
[3] = system: NSCLC H23 cells (KRAS-G12C); assay: Cell viability assay in 2D cell culture (CellTiter-Glo), H23; settings: for EC50: Homo sapiens, NCI-H23, 96 h
[4] = system: H2122 NSCLC cells (KRAS G12C); assay: FACS analysis of cell cycle distribution (acridine orange), H2122; format: cell-based
[5] = system: NSCLC H2122 cells (KRAS-G12C); assay: Cell viability assay in 2D cell culture (CellTiter-Glo), H2122
[6] = system: colon cancer SW620 cells (G12V); assay: FACS analysis of cell cycle distribution (acridine orange), SW620; format: cell-based; settings: SW620, 5 μM Compound I-7 and 20 nM trametinib, 24 hours
Experimental: SW620 cells were cultured, treated, and analyzed as described in Example 1. The results when different concentrations of trametinib, Compound I-7, or both trametinib and Compound I-7 are present are shown in FIG. 10.

[7] = system: ovarian cancer OVCAR cells (wild KRAS); assay: Cell viability assay in 2D cell culture (CellTiter-Glo), OVCAR; format: cell-based; settings: for EC50: 96 h
[8] = system: NSCLC H358 cells (KRAS-G12C); assay: Cell viability assay in 2D cell culture (CellTiter-Glo), H358
[9] = system: NSCLC H1975 cells (wild-type KRAS); assay: Cell viability assay in 2D cell culture (CellTiter-Glo), H1975; format: cell-based; settings: for EC50: Homo sapiens, NCI-H1975, 96 h, H1975, 96 h
[10] = system: quiescent and proliferating pancreatic cancer cells; settings: reported by Ewton et al. 2011; cited from earlier work
[11] = system: 3D spheroids of NSCLC H23 cells (KRAS-G12C); assay: Cell viability assay in 3D cell culture (spheroids), H23; format: cell-based; settings: Homo sapiens, NCI-H23, H23 3D spheroids, read-out: EC50 for trametinib
Experimental: (§1) For the treatment, 50 μL of media was removed from each well and replaced with fresh media with compounds. […] If the treatment time exceeded 4 days, 70 μL of media in each well was replaced with fresh media containing the test compound every fourth day. Each treatment was performed in duplicate. […] Prior to analysis, the spheroids were photographed at 50× magnification.
as §1, with “magnification” for “magnification.”

[12] = H2122, 5 μM Compound I-7 and 100 nM AMG-510, FBS+
[13] = H2122, 5 μM Compound I-7 and 100 nM MRTX 849, 48 hours

SMILES: CCOC(=N)c1nc2ccc3ncnc(Nc4cc(F)c(F)cc4Cl)c3c2s1 [Compound I-7]
phosphorylation of p27 (Western blot) [1]: decrease of the phosphorylation of p27
total levels of p27 (Western blot) [1]: decrease
effect of combination on cytotoxicity of selumetinib ([2]; A549, combined with selumetinib): significant increase in cytotoxicity
effect of combination on cytotoxicity ([2]; A549, combined with trametinib): synergistic
effect of combination on cytotoxicity ([3]; H23, combined with trametinib): synergistic
apoptotic cells (sub-G0 fraction) [4, 12]: large increase in apoptotic cells
proportion of quiescent cells [4, 12]: no such increase in proportion of quiescent cells was observed
apoptotic cells (sub-G0 population) [4, 13]: significant increases in apoptotic cells
fraction of cells in G0 [4, 13]: reduced the fraction of cells in G0
effect of combination on cytotoxicity ([5]; H2122, combined with AMG-510): synergistic
effect of combination on cytotoxicity ([5]; H2122, combined with MRTX-849): synergistic
apoptotic cells (sub-G0 population) [6]: significant increases in apoptotic cells
fraction of cells in G0 ([6]; vs trametinib alone): reduced the fraction of cells in G0

SMILES: c1cncc(-c2ccnc3ccc(-c4c[nH]c5ncccc45)cc23)c1 [Compound II-1]
effect of combination on cytotoxicity ([7]; combined with selumetinib): synergistic effect
effect of combination on cytotoxicity ([8]; H358, combined with AMG-510): synergistic
effect of combination on cytotoxicity ([8]; H358, combined with MRTX-849): synergistic
effect of combination on cytotoxicity ([9]; H1975, combined with selumetinib): synergistic effect

SMILES: COc1ncc2cc(C(=O)Nc3cc(C(=O)NCc4cccc(Cl)c4)ccc3Cl)c(=O)[nH]c2n1 [TC-S 7004]
effectiveness against quiescent and proliferating cancer cells in vitro [10]: effective against both quiescent and proliferating cancer cells

EC50 ([2]; read-out: EC50 for selumetinib, Compound I-7 not present): 2350 nM
EC50 ([2]; read-out: EC50 for selumetinib, Compound I-7 present at 3 μM): 920 nM
EC50 ([2]; read-out: EC50 for selumetinib, Compound I-7 present at 6 μM): 10 nM
EC50 ([7]; Compound I-7 not present, highest selumetinib concentration 50 μM): 238000 nM
EC50 ([7]; Compound I-7 present at 1 μM, read-out: EC50 for selumetinib): 173000 nM
EC50 ([7]; Compound I-7 present, read-out: EC50 for selumetinib): < 100 nM
EC50 ([9]; Compound II-1 not present, highest selumetinib concentration 20 μM): 59000 nM
EC50 ([9]; Compound II-1 present at 1 μM, read-out: EC50 for selumetinib): 130 nM
SMILES: Cn1cnc2c(F)c(Nc3ccc(Br)cc3Cl)c(C(=O)NOCCO)cc21 [selumetinib]

EC50 ([2]; read-out: EC50 for trametinib, Compound I-7 not present): 16.2 nM
EC50 ([2]; read-out: EC50 for trametinib, Compound I-7 present at 2.2 μM): 16 nM
EC50 ([2]; read-out: EC50 for trametinib, Compound I-7 present at 6.73 μM): 3.2 nM
SMILES: CC(=O)Nc1cccc(-n2c(=O)n(C3CC3)c(=O)c3c(Nc4ccc(I)cc4F)n(C)c(=O)c(C)c32)c1 [trametinib]
EC50 ([11]; Compound I-7 not present): 1.7 nM
EC50 ([11]; Compound I-7 present at 5 μM): 1.2 nM
EC50 ([11]; Compound I-7 present at 10 μM): < 0.01 nM
EC50 ([3]; read-out: EC50 for trametinib, H23 2D, 96 h, Compound I-7 not present): 19.2 nM
EC50 ([3]; read-out: EC50 for trametinib, H23 2D, 96 h, Compound I-7 present at 0.12 μM): 15.5 nM
EC50 ([3]; read-out: EC50 for trametinib, H23 2D, 96 h, Compound I-7 present at 3.3 μM): 11.8 nM
